The species named for one experiment is Homo sapiens. Kind of experiment: Selectivity ratio of IC50 for human DAT to IC50 for human SERT.
Sodium-dependent dopamine transporter, sequence (Q01959 whole entry): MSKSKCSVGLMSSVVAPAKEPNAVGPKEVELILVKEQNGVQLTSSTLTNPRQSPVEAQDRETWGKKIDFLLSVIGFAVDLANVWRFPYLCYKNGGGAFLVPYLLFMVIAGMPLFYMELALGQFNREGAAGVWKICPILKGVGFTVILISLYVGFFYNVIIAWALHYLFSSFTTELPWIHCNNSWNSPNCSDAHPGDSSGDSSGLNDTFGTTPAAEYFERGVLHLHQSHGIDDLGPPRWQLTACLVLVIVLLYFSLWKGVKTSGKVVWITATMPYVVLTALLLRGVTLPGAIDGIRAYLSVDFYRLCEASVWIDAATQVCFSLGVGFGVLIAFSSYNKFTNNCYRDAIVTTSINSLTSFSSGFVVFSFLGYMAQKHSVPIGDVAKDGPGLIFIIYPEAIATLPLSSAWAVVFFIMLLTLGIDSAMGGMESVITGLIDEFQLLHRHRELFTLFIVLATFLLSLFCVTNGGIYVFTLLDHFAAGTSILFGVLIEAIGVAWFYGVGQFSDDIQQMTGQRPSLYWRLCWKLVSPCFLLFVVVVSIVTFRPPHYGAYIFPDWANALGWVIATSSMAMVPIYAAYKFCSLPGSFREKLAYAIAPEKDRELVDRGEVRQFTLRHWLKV
Sodium-dependent noradrenaline transporter, sequence (P23975 whole entry): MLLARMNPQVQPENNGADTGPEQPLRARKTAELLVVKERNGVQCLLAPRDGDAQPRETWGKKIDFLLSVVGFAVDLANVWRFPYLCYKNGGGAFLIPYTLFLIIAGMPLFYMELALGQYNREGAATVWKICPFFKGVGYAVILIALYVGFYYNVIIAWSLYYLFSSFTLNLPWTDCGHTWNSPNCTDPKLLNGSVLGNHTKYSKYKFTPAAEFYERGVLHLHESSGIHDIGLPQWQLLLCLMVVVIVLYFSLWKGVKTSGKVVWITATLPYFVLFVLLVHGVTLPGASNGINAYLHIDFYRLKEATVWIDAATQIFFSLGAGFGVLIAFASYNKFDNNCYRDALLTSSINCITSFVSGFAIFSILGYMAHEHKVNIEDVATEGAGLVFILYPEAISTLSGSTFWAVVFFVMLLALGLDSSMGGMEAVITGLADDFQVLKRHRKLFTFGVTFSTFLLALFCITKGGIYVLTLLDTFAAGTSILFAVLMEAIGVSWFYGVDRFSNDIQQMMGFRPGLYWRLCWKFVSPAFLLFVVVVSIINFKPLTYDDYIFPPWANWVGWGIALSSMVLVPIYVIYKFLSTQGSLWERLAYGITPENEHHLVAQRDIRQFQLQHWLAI
For `CN1CCc2ccccc2C1CCc1c[nH]c2ccc(C#N)cc12` (single isomer, unassigned; (-)) [listing 1 of 2 here], the Ratio IC50 turned out to be 1500.

A further experiment concerns the target Sodium-dependent dopamine transporter (Homo sapiens, UniProt Q01959). Description: Displacement of [I125]RTI-55 from human DAT transfected in human HEK293 cells. In kind it is cell-based.
What is called IC50 is the concentration needed to halve the response being measured. A high value points to a need for much substance. `CN1CCc2ccccc2C1CCc1c[nH]c2ccc(C#N)cc12` (single isomer, unassigned; (-)) [listing 2 of 2 here] gave an IC50 of 620 nM.

The species named for a further experiment is Homo sapiens. Kind of experiment: Selectivity ratio of IC50 for human NET to IC50 for human SERT.
Take `CN1CCc2ccccc2C1CCc1c[nH]c2ccc(C#N)cc12` (single isomer, unassigned; (-)) [listing 1 of 2 here]: the Ratio IC50 is more than 20000.

In the next experiment the target is Sodium-dependent serotonin transporter (Homo sapiens, UniProt P31645). Kind of experiment: Displacement of [I125]RTI-55 from human SERT transfected in human HEK293 cells. In kind it is cell-based.
Sodium-dependent serotonin transporter, sequence (P31645 whole entry): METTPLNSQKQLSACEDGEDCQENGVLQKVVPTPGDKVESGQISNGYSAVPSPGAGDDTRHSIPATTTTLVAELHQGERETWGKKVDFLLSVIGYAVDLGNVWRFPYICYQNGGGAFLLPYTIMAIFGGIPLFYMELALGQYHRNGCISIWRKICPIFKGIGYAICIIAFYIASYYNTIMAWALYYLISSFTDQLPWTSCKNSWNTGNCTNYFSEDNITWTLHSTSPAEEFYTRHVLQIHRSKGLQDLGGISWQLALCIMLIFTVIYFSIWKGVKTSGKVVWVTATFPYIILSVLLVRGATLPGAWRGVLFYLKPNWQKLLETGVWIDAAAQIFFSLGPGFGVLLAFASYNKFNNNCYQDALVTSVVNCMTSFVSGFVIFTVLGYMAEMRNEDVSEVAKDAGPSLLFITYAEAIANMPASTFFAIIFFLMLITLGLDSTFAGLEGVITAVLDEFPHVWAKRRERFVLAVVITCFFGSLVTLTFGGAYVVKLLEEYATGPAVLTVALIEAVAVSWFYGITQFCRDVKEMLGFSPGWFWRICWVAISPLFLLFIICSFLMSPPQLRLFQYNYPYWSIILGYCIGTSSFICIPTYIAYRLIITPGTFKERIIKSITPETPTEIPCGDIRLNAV
The molecule `CN1CCc2ccccc2C1CCc1c[nH]c2ccc(C#N)cc12` (single isomer, unassigned; (-)) [listing 2 of 2 here] came in with an IC50 of 0.42 nM. In other words, the sub-nanomolar range.

On to `N#Cc1ccc2[nH]cc(CC[C@H]3C[C@@H](Cc4ccccc4)CCN3)c2c1`, for which the IC50 was found to be 18 nM.

`CCN1CCCCC1CCc1c[nH]c2ccc(C#N)cc12` (configuration not stated) came in with an IC50 of 4 nM.

Regarding `CN1CCCCC1(C)CCc1c[nH]c2ccc(C#N)cc12` (configuration not stated), the IC50 worked out at 2.1 nM.

`N#Cc1ccc2[nH]cc(CCC3CCCCN3)c2c1` (configuration not stated): the IC50 was 2.5 nM.

Regarding `CN1CCc2ccccc2C1CCc1c[nH]c2ccc(F)cc12` (configuration not stated), the IC50 was found to be 5.7 nM.

In turn, `CN1CCOCC1CCc1c[nH]c2ccc(C#N)cc12` (configuration not stated) came in with a half-inhibitory concentration (IC50) of 76 nM. Against the preceding molecule, the IC50 is about 13-fold higher.

`CN1CCCC1CCc1c[nH]c2ccc(C#N)cc12` (configuration not stated) came in with an IC50 of 8.1 nM.

Molecule `N#Cc1ccc2[nH]cc(CCC3CCCCN3Cc3ccccc3)c2c1` (configuration not stated) registered a concentration for half-maximal inhibition (IC50) of 7 nM.

Take `N#Cc1ccc2[nH]cc(CCC3CCCN3)c2c1` (configuration not stated): the IC50 came to 17 nM.

In the case of `CN1CCc2ccccc2C1CCc1c[nH]c2ccc(C#N)cc12` (stereo in doubt; 21a), the concentration for half-maximal inhibition (IC50) came out at 1.1 nM. Against the preceding molecule, the IC50 is about 15-fold lower.

Molecule `CN1CCCCC1CCc1c[nH]c2ccc(C#N)cc12` (configuration not stated) came in with an IC50 of 3.9 nM.

Consider `CC1(CCc2c[nH]c3ccc(C#N)cc23)CCCCN1` (configuration not stated), for which the half-inhibitory concentration (IC50) was determined as 17 nM.

`COc1ccc2[nH]cc(CCC3c4ccccc4CCN3C)c2c1` (configuration not stated) displayed a half-maximal inhibitory concentration (IC50) of 120 nM.

In turn, `CN1CCc2ccccc2C1CCc1c[nH]c2ccc(C#N)cc12` (single isomer, unassigned; (+)) displayed an IC50 of 4.2 nM.

`CN1CC[C@H](Cc2ccccc2)C[C@@H]1CCc1c[nH]c2ccc(C#N)cc12` yielded an IC50 of 7.6 nM.

`N#Cc1ccc2[nH]cc(CCC3CCCCN3CCC(F)(F)F)c2c1` (configuration not stated) had an IC50 of 80 nM.

Turning to `N#Cc1ccc2[nH]cc(CCC3CCCCN3Cc3cc(C(F)(F)F)cc(C(F)(F)F)c3)c2c1` (configuration not stated), the IC50 amounted to 46 nM. Against the preceding molecule, the IC50 is about 1.7-fold lower.

A further experiment concerns the target Sodium-dependent noradrenaline transporter (Homo sapiens, UniProt P23975). Kind of experiment: Displacement of [125I]nisoxetine from human NET transfected in human HEK293 cells. The format is cell-based. A general note: Loss of bound radioactivity is the signal in a displacement assay; it reports binding, not function.
`CN1CCc2ccccc2C1CCc1c[nH]c2ccc(C#N)cc12` (single isomer, unassigned; (-)) [listing 2 of 2 here] displayed an IC50 of more than 10000 nM.

The record behind these values is ChEMBL document CHEMBL1159043, “Synthesis and hSERT activity of homotryptamine analogs. Part 6: [3+2] dipolar cycloaddition of 3-vinylindoles” (Bioorg Med Chem Lett, 2010).
